# Reference: ChEMBL document CHEMBL1201862, “PubChem BioAssay data set” (2004)
#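 Interpolation was linear, between the two tested concentrations surrounding the appropriate level; five concentrations were tested over 48 hours in 96-well plates. GI50: concentration for 50% inhibition of growth.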 Calls of active or inactive are those of the source. Cut-off read from the data, not from the text of the source: active = GI50 up to about 1.1 µM and inactive = higher.
# Columns and labels:
# Test in all cases: inhibition of tumour cell growth, NCI panel, 48 h
# 786-0 = test system: 786-0
# A498 = test system: A498
# A549 = test system: A549
# ACHN = test system: ACHN
# CAKI-1 = test system: CAKI-1
# CCRF-CEM = test system: CCRF-CEM
# COLO 205 = test system: COLO 205
# DU-145 = test system: DU-145
# EKVX = test system: EKVX
# HCC 2998 = test system: HCC 2998
# HCT-116 = test system: HCT-116
# HCT-15 = test system: HCT-15
# HL-60 = test system: HL-60
# HOP-62 = test system: HOP-62
# HOP-92 = test system: HOP-92
# HT-29 = test system: HT-29
# Hs-578T = test system: Hs-578T
# IGROV-1 = test system: IGROV-1
# K562 = test system: K562
# KM12 = test system: KM12
# LOX IMVI = test system: LOX IMVI
# M14 = test system: M14
# MCF7 = test system: MCF7
# MDA-MB-231 = test system: MDA-MB-231
# MDA-MB-435 = test system: MDA-MB-435
# MDA-N = test system: MDA-N
# MOLT-4 = test system: MOLT-4
# Malme-3M = test system: Malme-3M
# NCI-H226 = test system: NCI-H226
# NCI-H23 = test system: NCI-H23
# NCI-H460 = test system: NCI-H460
# NCI-H522 = test system: NCI-H522
# NCI/ADR-RES = test system: NCI/ADR-RES
# OVCAR-3 = test system: OVCAR-3
# OVCAR-4 = test system: OVCAR-4
# OVCAR-5 = test system: OVCAR-5
# OVCAR-8 = test system: OVCAR-8
# PC-3 = test system: PC-3
# RPMI-8226 = test system: RPMI-8226
# RXF 393 = test system: RXF 393
# SF-268 = test system: SF-268
# SF-295 = test system: SF-295
# SF-539 = test system: SF-539
# SK-MEL-28 = test system: SK-MEL-28
# SK-MEL-2 = test system: SK-MEL-2
# SK-MEL-5 = test system: SK-MEL-5
# SK-OV-3 = test system: SK-OV-3
# SN12C = test system: SN12C
# SNB-19 = test system: SNB-19
# SNB-75 = test system: SNB-75
# SR = test system: SR
# T47D = test system: T47D
# TK-10 = test system: TK-10
# U-251 = test system: U-251
# UACC-257 = test system: UACC-257
# UO-31 = test system: UO-31
# SW-620 = test system: SW-620
# UACC-62 = test system: UACC-62
structure (smiles),measurement,setting,value
O=[N+]([O-])c1cc(C2ON=C(c3ccccc3)N2C23CC4CC(CC(C4)C2)C3)ccc1Cl (stereo not given),GI50,786-0,> 100 µM (inactive)
same,GI50,A498,> 100 µM (inactive)
same,GI50,A549,> 100 µM (inactive)
same,GI50,ACHN,> 100 µM (inactive)
same,GI50,CAKI-1,> 100 µM (inactive)
same,GI50,CCRF-CEM,> 100 µM (inactive)
same,GI50,COLO 205,> 100 µM (inactive)
same,GI50,DU-145,> 100 µM (inactive)
same,GI50,EKVX,> 100 µM (inactive)
same,GI50,HCC 2998,> 100 µM (inactive)
same,GI50,HCT-116,73.5 µM (inactive)
same,GI50,HCT-15,> 100 µM
same,GI50,HL-60,> 100 µM (inactive)
same,GI50,HOP-62,> 100 µM (inactive)
same,GI50,HOP-92,> 100 µM (inactive)
same,GI50,HT-29,> 100 µM (inactive)
same,GI50,Hs-578T,> 100 µM (inactive)
same,GI50,IGROV-1,> 100 µM (inactive)
same,GI50,K562,> 100 µM (inactive)
same,GI50,KM12,> 100 µM (inactive)
same,GI50,LOX IMVI,> 100 µM (inactive)
same,GI50,M14,> 100 µM (inactive)
same,GI50,MCF7,2.74 µM (inactive)
same,GI50,MDA-MB-231,> 100 µM (inactive)
same,GI50,MDA-MB-435,> 100 µM (inactive)
same,GI50,MDA-N,> 100 µM (inactive)
same,GI50,MOLT-4,> 100 µM (inactive)
same,GI50,Malme-3M,> 100 µM (inactive)
same,GI50,NCI-H226,49.5 µM (inactive)
same,GI50,NCI-H23,> 100 µM (inactive)
same,GI50,NCI-H460,> 100 µM (inactive)
same,GI50,NCI-H522,> 100 µM (inactive)
same,GI50,NCI/ADR-RES,> 100 µM (inactive)
same,GI50,OVCAR-3,> 100 µM (inactive)
same,GI50,OVCAR-4,> 100 µM (inactive)
same,GI50,OVCAR-5,> 100 µM (inactive)
same,GI50,OVCAR-8,> 100 µM (inactive)
same,GI50,PC-3,> 100 µM (inactive)
same,GI50,RPMI-8226,> 100 µM (inactive)
same,GI50,RXF 393,> 100 µM (inactive)
same,GI50,SF-268,> 100 µM (inactive)
same,GI50,SF-295,> 100 µM (inactive)
same,GI50,SF-539,> 100 µM (inactive)
same,GI50,SK-MEL-28,> 100 µM (inactive)
same,GI50,SK-MEL-2,> 100 µM (inactive)
same,GI50,SK-MEL-5,> 100 µM (inactive)
same,GI50,SK-OV-3,> 100 µM (inactive)
same,GI50,SN12C,> 100 µM (inactive)
same,GI50,SNB-19,> 100 µM (inactive)
same,GI50,SNB-75,15.5 µM (inactive)
same,GI50,SR,> 100 µM (inactive)
same,GI50,T47D,> 100 µM (inactive)
same,GI50,TK-10,> 100 µM (inactive)
same,GI50,U-251,> 100 µM (inactive)
same,GI50,UACC-257,> 100 µM (inactive)
same,GI50,UO-31,> 100 µM (inactive)
O=C1CCCSC(=O)N1Cc1ccccc1,GI50,786-0,> 100 µM (inactive)
same,GI50,A498,> 100 µM (inactive)
same,GI50,A549,> 100 µM (inactive)
same,GI50,ACHN,> 100 µM (inactive)
same,GI50,CAKI-1,> 100 µM (inactive)
same,GI50,CCRF-CEM,> 100 µM (inactive)
same,GI50,COLO 205,> 100 µM (inactive)
same,GI50,DU-145,> 100 µM (inactive)
same,GI50,EKVX,> 100 µM (inactive)
same,GI50,HCC 2998,> 100 µM (inactive)
same,GI50,HCT-116,> 100 µM (inactive)
same,GI50,HCT-15,> 100 µM
same,GI50,HL-60,> 100 µM (inactive)
same,GI50,HOP-62,> 100 µM (inactive)
same,GI50,HOP-92,> 100 µM (inactive)
same,GI50,HT-29,> 100 µM (inactive)
same,GI50,Hs-578T,> 100 µM (inactive)
same,GI50,IGROV-1,> 100 µM (inactive)
same,GI50,KM12,> 100 µM (inactive)
same,GI50,LOX IMVI,> 100 µM (inactive)
same,GI50,M14,> 100 µM (inactive)
same,GI50,MCF7,> 100 µM (inactive)
same,GI50,MDA-MB-231,> 100 µM (inactive)
same,GI50,MDA-MB-435,> 100 µM (inactive)
same,GI50,MDA-N,> 100 µM (inactive)
same,GI50,MOLT-4,> 100 µM (inactive)
same,GI50,Malme-3M,> 100 µM (inactive)
same,GI50,NCI-H226,> 100 µM (inactive)
same,GI50,NCI-H23,> 100 µM (inactive)
same,GI50,NCI-H460,> 100 µM (inactive)
same,GI50,NCI-H522,> 100 µM (inactive)
same,GI50,NCI/ADR-RES,> 100 µM (inactive)
same,GI50,OVCAR-3,> 100 µM (inactive)
same,GI50,OVCAR-4,> 100 µM (inactive)
same,GI50,OVCAR-5,> 100 µM (inactive)
same,GI50,OVCAR-8,> 100 µM (inactive)
same,GI50,PC-3,> 100 µM (inactive)
same,GI50,RXF 393,> 100 µM (inactive)
same,GI50,SF-268,> 100 µM (inactive)
same,GI50,SF-295,> 100 µM (inactive)
same,GI50,SF-539,> 100 µM (inactive)
same,GI50,SK-MEL-28,> 100 µM (inactive)
same,GI50,SK-MEL-2,> 100 µM (inactive)
same,GI50,SK-MEL-5,> 100 µM (inactive)
same,GI50,SK-OV-3,> 100 µM (inactive)
same,GI50,SN12C,> 100 µM (inactive)
same,GI50,SNB-19,> 100 µM (inactive)
same,GI50,SNB-75,0.0515 µM (active)
same,GI50,SR,> 100 µM (inactive)
same,GI50,SW-620,> 100 µM (inactive)
same,GI50,T47D,> 100 µM (inactive)
same,GI50,TK-10,> 100 µM (inactive)
same,GI50,UACC-257,> 100 µM (inactive)
same,GI50,UACC-62,> 100 µM (inactive)
